These are literature values, as cited in publication PMC8683664 (International Journal of Pharmaceutics: X, 2021).

In brackets after ≈: the same amount, converted by molar mass. Read-outs that look alike come from different tables or passages of the source.

Data set [1] concerns SARS-CoV-2. The note with it: 2020; for EC50 in Calu-3 2B4 cells: value in brackets ref Pruijssers et al.; for EC50: read-out: EC50 in Calu-3 2B4 cells, Calu-3 2B4 cells ref Pruijssers et al.
The test system of data set [2] is SAR-CoV-2. The note with it: human airway epithelial (HAE) cells, value in brackets ref Agostini et al., 2018.
Data set [3] deals with severe COVID-19 patients. The note with it: 10-day course, placebo 15 days ref Beigel et al., 2020.
Data set [4] relates to SARS-CoV-2. To be noted: read-out: EC50 in Calu-3; continuous human lung epithelial cell line (Calu-3), prescribing information of Veklury ref Gilead Sciences, Inc., 2020.

With `N#C[C@@]1(c2ccc3c(N)ncnn23)O[C@H](CO)[C@@H](O)[C@H]1O` [GS-441524], in data set [1], the “EC50 in Calu-3 2B4 cells” value is 0.1806 µg/mL (≈ 0.62 µM) and the EC50 was 620 nM. Also, in data set [2], the “EC50 against SAR-CoV-2 in HAE” value is 0.05243 µg/mL (≈ 0.18 µM).

Take `CCC(CC)COC(=O)[C@H](C)N[P@](=O)(OC[C@H]1O[C@@](C#N)(c2ccc3c(N)ncnn23)[C@H](O)[C@@H]1O)Oc1ccccc1` [remdesivir]: in data set [3], the recovery time is on record as 11 days. In addition, the “EC50 in Calu-3 2B4 cells” value in data set [1] is 0.16873 µg/mL (≈ 0.28 µM). Also, the EC50 in data set [1] and in data set [4] was 280 nM in each case. Moreover, the “EC50 against SAR-CoV-2 in HAE” value in data set [2] is 0.04218 µg/mL (≈ 0.07 µM).
